pIC50: −log10 of the molar value.

T1 sequence (Q9GZT9 whole entry): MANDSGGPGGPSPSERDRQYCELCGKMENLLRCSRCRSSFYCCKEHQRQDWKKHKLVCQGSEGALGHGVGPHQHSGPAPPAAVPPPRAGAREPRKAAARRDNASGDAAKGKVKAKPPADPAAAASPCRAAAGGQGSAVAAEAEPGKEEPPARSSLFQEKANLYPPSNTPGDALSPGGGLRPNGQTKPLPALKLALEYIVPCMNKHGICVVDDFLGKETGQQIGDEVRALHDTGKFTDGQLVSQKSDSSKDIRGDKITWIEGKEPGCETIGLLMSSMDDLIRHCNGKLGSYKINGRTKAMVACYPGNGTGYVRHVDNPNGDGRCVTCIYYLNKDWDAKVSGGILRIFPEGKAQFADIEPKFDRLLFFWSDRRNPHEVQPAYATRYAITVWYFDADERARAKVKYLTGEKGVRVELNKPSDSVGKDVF

This assay has as its target T1, FLAG-tagged full length PHD2 (Homo sapiens, UniProt Q9GZT9).
T1 construct: FLAG-tagged full length PHD2 expressed in and purified from baculovirus-infected Sf9 cells; FLAG; made in house; host or cells: baculovirus-infected Sf9 cells
The assay is described as follows: PHD2 inhibition assay (time resolved fluorescence, HIF-1α peptide hydroxylation, VHL complex detection). The format is biochemical. Conditions: 0.2 μM 2-oxoglutarate, 0.5 μM HIF-1α peptide. Here is the method: To each well of a 96-well plate was added 1 μL of test compound in DMSO and 20 μl of assay buffer (50 mM Tris pH 7.4/0.01% Tween-20/0.1 mg/ml bovine serum albumin/10 μM ferrous sulfate/i mM sodium ascorbate/20 μg/ml catalase) containing 0.15 μg/ml FLAG-tagged full length PHD2 expressed in and purified from baculovirus-infected Sf9 cells. After a 30 min preincubation at room temperature, the enzymatic reactions were initiated by the addition of 4 μL of substrates (final concentrations of 0.2 μM 2-oxoglutarate and 0.5 μM HIF-1α peptide biotinyl-DLDLEMLAPYIPMDDDFQL (SEQ ID NO: 1)). After 2 hr at room temperature, the reactions were terminated and signals were developed by the addition of a 25 μL quench/detection mix to a final concentration of 1 mM ortho-phenanthroline, 0.1 mM EDTA, 0.5 nM anti-(His)6 LANCE reagent (Perkin-Elmer Life Sciences), 100 nM AF647-labeled streptavidin (Invitrogen), and 2 μg/ml (His)6-VHL complex (S. Tan (2001) Protein Expr. Purif. 21, 224-234). The ratio of time resolved fluorescence signals at 665 and 620 nm was determined, and percent inhibition was calculated relative to an uninhibited control sample run in parallel.
Take `CCOP(=O)(OCC)c1ccc(C(C)C(=O)Nc2cnc(-c3ccccn3)nc2O)cc1` (stereo not drawn) [Compound 7-1, Diethyl 4-(1-(4-hydroxy-2-(pyridin-2-yl)pyrimidin-5-ylamino)-1-oxopropan-2-yl)phenyl phosphonate]: the pIC50 (as a rule, the negative decadic logarithm of the IC50, by convention in mol/L) is 5.00 to 7.00.
For `CP(=O)(O)c1ccc([C@@H](NC(=O)c2cnc(-n3cc(F)cn3)nc2O)c2ccc(F)cc2)cc1` [Compound 28-1, 4-((S)-(2-(4-fluoro-1H-pyrazol-1-yl)-4-hydroxypyrimidine-5-carboxamido)(4-fluorophenyl)methyl)phenyl(methyl)phosphinic acid] the value was 5.00 to 7.00; for `O=C(NC(c1ccccc1)P(=O)(O)O)c1cnc(-c2cccnn2)nc1O` (stereo not drawn) [Compound 30-1, (4-hydroxy-2-(pyridazin-3-yl)pyrimidine-5-carboxamido)(phenyl)methylphosphonic acid], 7.00 to 7.70.
As to `CP(=O)(O)c1ccc(C(NC(=O)c2cnc(-n3cccn3)nc2O)c2ccccc2)cc1` (stereo not drawn) [Compound 8-4, 4-((4-Hydroxy-2-(1H-pyrazol-1-yl)pyrimidine-5-carboxamido)(phenyl)methyl)phenyl(methyl)phosphinic acid], the pIC50 was 7.70 to 9.30.
On to `COc1ccc(C(NC(=O)c2cnc(-c3ccccn3)nc2O)c2cccc(P(=O)(O)O)c2)cc1` (stereo not drawn) [Compound 5-1, 3-((4-hydroxy-2-(pyridin-2-yl)pyrimidine-5-carboxamido)(4-methoxyphenyl)methyl)phenylphosphonic acid], for which the pIC50 is 7.70 to 9.30.
For `COc1ccc(C(NC(=O)c2cnc(-c3ccccn3)nc2O)c2ccc(P(=O)(O)O)cc2)cc1` (stereo not drawn) [Compound 1-1-2, 4-((4-hydroxy-2-(pyridin-2-yl)pyrimidine-5-carboxamido)(4-methoxyphenyl)methyl)phenylphosphonic acid], the pIC50 was 7.70 to 9.30.

The values above are taken from US9079930B2, “Substituted pyrimidines” (MERCK SHARP & DOHME CORP., priority 2011, dated 2015).
